Source: patent publication EP0380084A2, “Method for the inhibition of cell-cell and cell substratum interactions by the blocking of carbohydrate-carbohydrate interactions” (The Biomembrane Institute, priority 1989, dated 1990)
“Also recorded” adds a separate entry of the source.

Legend:
[1] = tested on: mouse teratocarcinoma F9 cells; assay: F9 cell aggregation assay (microscopy and Coulter Counter count of single cells); format: cell-based; conditions: for self-aggregation of F9 cells: PBS with Ca2+ and Mg2+, 50 mM EDTA, 2 mM LFP II, 2 mM LFP III (Figure 1, panels a-d); for numbers of free (i.e., nonaggregated) cells: Coulter Counter, semiquantitative (Figure 1, panel e), 2 mM LFP II or LFP III
Experimental: More specifically, mouse teratocarcinoma F9 cells (Bernstine et al., Proc. Natl. Acad. Sci. USA 70:3899-3903, 1973) were grown on gelatin-coated plates in Dulbecco's modified Eagle's medium (DME) containing 4.5 g/l glucose and supplemented with 10% fetal calf serum (FCS) (v/v). The plates were prepared by incubating 0.01% gelatin in water for 30 min.
F9 cells grown to confluency on gelatin-coated plates were harvested using standard trypsin/EDTA solution and washed in DME containing 10% FCS. Next, the cells were carefully resuspended in a PBS solution (containing 0.9 mM Ca²⁺, 0.5 mM Mg²⁺ and 0.1 mM Mn²⁺) and supplemented with 0.1% FCS. The cell samples were mixed carefully before pipetting, and both manual counting and counting with a Coulter Counter (Model ZBI, Coulter Electronics Inc., Hialeah, Fla.) were performed. Adjustments of the aperture on the Coulter Counter were made in order to correlate with the manual counting of the single cells, excluding aggregated cells. For aggregation assays, cells were adjusted to a concentration of about 2.6 x 10⁷/ml. After 1 hr at 37°C, 50 µl aliquots were mixed with 50 µl of ethylenediaminetetraacetic acid (EDTA), LFP II, or LFP III solutions, and cells were incubated for an additional 15 min at 37°C. […] Before measurements on the Coulter Counter, the 100 µl volume sample was diluted to 10 ml and mixed carefully. In experiments were photomicrographs of cells were taken, approximately 0.8 x 10⁶ cells were placed in different PBS solutions (final volume 100 µl) in small Petri dishes. The cell suspension was then covered by mineral oil and incubated at 37°C for 30-60 min, and the process of cell aggregation was observed under the microscope.
The degree of F9 cell aggregation was semiquantitatively expressed by numbers of free (i.e., nonaggregated) cells (panel e), as determined by Coulter Counter with an appropriate aperture setting.

Gg3/GM₃ interaction = conditions: antibody: pretreatment of the Gg3-coated solid phase
[2] = tested on: mouse T cell lymphoma L5178 AV27 cell line to B16 cells; conditions: 10 mM EDTA; 3H remaining after washing (Figure 2, panel c)
Experimental: Mouse B16 melanoma cells (which express a high level of GM₃) were purchased from American Type Culture Collection (Rockville, MD). Expression of GM₃ by B16 cells was defined by MAb DH2 (Dohi et al., Cancer Res. 48:5680-5685, 1988). Mouse T cell lymphoma line L5178 AA12 (which express a high level of Gg3, defined by MAb 2D4; Young et al., J. Exp. Med. 150:1008-1019, 1979) was cloned from 1C1 (Young et al., J. Immunol. 126:1-6, 1981). […] All cells were grown in RPMI 1640 containing 10% FCS.
B16 cells (5x10⁴/ml), highly expressing GM₃, were grown on 24-well plates (Falcon, Oxnard, CA) for 24 hrs in DME. The majority of adherent cells were washed with serum-free medium. AA12 cells (Gg3 expressors) or AV27 cells (Gg3 non-expressors) were grown in DME containing 2% FCS, 1 g/l glucose, and 50 µCi ³H-GlcNH₂ for 24 hrs. The labeled AA12 (71,000 cpm/10⁵ cells) and AV27 (33,000 cpm/10⁵ cells) were then collected by centrifugation, suspended in DME containing 2% FCS and 1 g/l glucose, and the cell population adjusted to 6x10⁵/ml. This suspension (1 ml) was added to each well of a Falcon plate on which B16 melanoma cells were grown as adherent culture. The incubated plates were then washed 2x with serum-free fresh medium. L5178 lymphoma cells not adhering to B16 cells were washed out. The remaining cells in each plate were trypsinized, collected, and counted. […]

[3] = tested on: mouse T cell lymphoma L5178 AA12 cell line (high expressor of Gg3) to mouse B16 melanoma cell line (high expressor of GM₃); assay: Adhesion of 3H-labeled L5178 AA12 lymphoma cells to B16 melanoma cell layer; format: cell-based; conditions: 10 mM EDTA, 5 mM sialyllactose, DH2 2 µg/ml, 2D4 5 µg/ml; 3H remaining after washing (Figure 2, panel c)
Experimental: Mouse B16 melanoma cells (which express a high level of GM₃) were purchased from American Type Culture Collection (Rockville, MD).
B16 cells (5x10⁴/ml), highly expressing GM₃, were grown on 24-well plates (Falcon, Oxnard, CA) for 24 hrs in DME. The majority of adherent cells were washed with serum-free medium. AA12 cells (Gg3 expressors) or AV27 cells (Gg3 non-expressors) were grown in DME containing 2% FCS, 1 g/l glucose, and 50 µCi ³H-GlcNH₂ for 24 hrs. The labeled AA12 (71,000 cpm/10⁵ cells) and AV27 (33,000 cpm/10⁵ cells) were then collected by centrifugation, suspended in DME containing 2% FCS and 1 g/l glucose, and the cell population adjusted to 6x10⁵/ml. This suspension (1 ml) was added to each well of a Falcon plate on which B16 melanoma cells were grown as adherent culture. The incubated plates were then washed 2x with serum-free fresh medium. L5178 lymphoma cells not adhering to B16 cells were washed out. The remaining cells in each plate were trypsinized, collected, and counted.
B16 melanoma cells grown in 24-well plates and L5178 lymphoma cells were treated respectively with DH2 solution (2 µg/ml) and 2D4 solution (5 µg/ml), left for 30 min at room temperature, washed with serum-­free fresh DME, and incubated with lymphoma cell suspension and melanoma cell layer for 5 hrs.

Le^x glycolipid = assay: Interaction of Le^x liposomes with Le^x glycolipid coated on a plastic surface; format: binding
Experimental: A representative example of a carbohydrate-carbohydrate interaction is the recognition of Le^x(Galβ1 → 4[Fucα1 → 3]GlcNacβ1 → R) by Le^x per se. Le^x pentaosyl glycolipid (III³FucnLc₄) was prepared from human colonic adenocarcinoma.

Le^x liposomes = assay: Self-aggregation of Le^x liposomes; format: binding
Experimental: A representative example of a carbohydrate-carbohydrate interaction is the recognition of Le^x(Galβ1 → 4[Fucα1 → 3]GlcNacβ1 → R) by Le^x per se. Le^x pentaosyl glycolipid (III³FucnLc₄) was prepared from human colonic adenocarcinoma. Within the present invention, Le^x is shown to be the structure recognizing Le^x. […] Fourth, the diffusability of tritium-labeled LFP III (from the lower to the upper Boyden chamber through a semipermeable membrane) was inhibited by Le^x liposomes. In addition, the Le^x-Le^x interaction was highly dependent on bivalent cations (Ca²⁺, Mg²⁺) and was inhibited by EDTA.

Row | Compound | self-aggregation of F9 cells [1] | interaction of Gg3-coated solid phase with GM₃-containing liposomes (Gg3/GM₃ interaction) | Adhesion of AV27 cells to B16 cells [2] | Adhesion of AA12 cells on B16 melanoma [3] | Le^x-Le^x interaction (Le^x glycolipid; dependent on bivalent cations (Ca2+, Mg2+)) | numbers of free (i.e., nonaggregated) cells [1] | self-aggregation of Le^x liposomes (Le^x liposomes) | interaction of Le^x liposomes with immobilized Le^x glycolipid (Le^x glycolipid)
1 | O=C(O)CN(CCN(CC(=O)O)CC(=O)O)CC(=O)O [EDTA, ethylenediaminetetraacetic acid] | aggregation did not occur; also recorded: inhibited | inhibited | greatly suppressed | greatly suppressed | inhibited |  |  | 
2 | CC(=O)NC1C(OC2C(O)C(CO)OC(OC3C(CO)OC(O)C(O)C3O)C2O)OC(CO)C(OC2OC(CO)C(O)C(O)C2O)C1OC1OC(C)C(O)C(O)C1O (stereo not drawn) [LFP III] | aggregation was inhibited |  |  |  |  | increased greatly | specifically inhibited | specifically inhibited
3 | CC(=O)N[C@H]1[C@H](O[C@H]2[C@@H](O)[C@@H](CO)O[C@@H](O[C@H]3[C@H](O)[C@@H](O)C(O)O[C@@H]3CO)[C@@H]2O)O[C@H](CO)[C@@H](O[C@@H]2O[C@@H](C)[C@@H](O)[C@@H](O)[C@@H]2O)[C@@H]1O[C@@H]1O[C@H](CO)[C@H](O)[C@H](O)[C@H]1O (stereo partly drawn) [LFP II] | aggregation of F9 cells; also recorded: not by LFP II |  |  |  |  | much less |  | 
4 | sialyllactose |  |  |  | markedly inhibited |  |  |  | 
